According to patent US5389655A, “Phenylfuroxans” (Cassella AG, priority 1992, dated 1995):
Structures can show the parent of a compound that is named as a salt. Where two headings read alike, the source gives them in different places.

Test system: pulmonary artery of the guinea-pig
Assay: relaxation of guinea-pig potassium-depolarised pulmonary artery strips (inhibition of CaCl2-induced contraction)
Conditions: Cavia porcellus, read-out: IC50 (concentration of the test substance which inhibits the contraction by 50%)
Excerpt: As a guanylate cyclase activator, nitrogen monoxide leads to an increase in cyclic guanosine monophosphate, which causes a relaxation in the smooth muscle and antiadhesive and antiaggregatory actions in the blood platelets. Nitrogen monoxide is additionally crucially involved in learning processes, in the regulation of the kidney function, in immune defence, in septic shock and in erectile dysfunctions. […] In this method, spiral strips of the pulmonary artery of the guinea-pig are depolarised using 40 mmol/l potassium after equilibration in calcium-free Tyrode solution. An addition of 0.5 mmol/l of CaCl2 then induces a contraction.

[1] = spiral strips depolarised with 40 mmol/l potassium, contraction by 0.5 mmol/l CaCl2, cumulative addition, average of 4 to 6 vessel strips

IC50 [1] | SMILES | IC50
3000 nM | COC(=O)C[S+]([O-])c1no[n+]([O-])c1-c1ccccc1 (stereo not shown) [Compound 2, 3-Phenyl-4-(methoxycarbonylmethylsulphinyl)-1,2,5-oxadiazole-2-oxide] | 
4000 nM | CN(CCOc1no[n+]([O-])c1-c1ccccc1)Cc1ccccc1 [Compound 6, 3-Phenyl-4-(2-(N-benzyl-N-methylamino)ethoxy)-1,2,5-oxadiazole-2-oxide hydrochloride] | 
30 nM | CCCCS(=O)(=O)c1no[n+]([O-])c1-c1ccccc1 [Compound 9, 3-Phenyl-4-butylsulphonyl-1,2,5-oxadiazole-2-oxide] | 
300 nM | O=S(=O)(CCO)c1no[n+]([O-])c1-c1ccccc1 [Compound 10, 3-Phenyl-4-(2-hydroxyethylsulphonyl)-1,2,5-oxadiazole-2-oxide] | 
300000 nM | CCOC(=O)[N-]c1cn(N2CCOCC2)n[o+]1 [Molsidomine, reference compound] | 

The remaining lines, values behind:

SMILES | IC50 [1] | IC50
CCN(CC)CCS(=O)(=O)c1no[n+]([O-])c1-c1ccccc1 [Compound 5, 3-Phenyl-4-(2-diethylaminoethylsulphonyl)-1,2,5-oxadiazole-2-oxide] | 700 nM | 
[O-][n+]1onc(OCc2cccnc2)c1-c1ccccc1 [Compound 12, 3-Phenyl-4-(pyrid-3-ylmethoxy)-1,2,5-oxadiazole-2-oxide] | 3000 nM | 
NC(=O)C[S+]([O-])c1no[n+]([O-])c1-c1ccccc1 (stereo not shown) [Compound 19, 3-Phenyl-4-(aminocarbonylmethylsulphinyl)-1,2,5-oxadiazole-2-oxide] | 2000 nM | 
CCS(=O)(=O)c1no[n+]([O-])c1-c1ccccc1 [Compound 20, 3-Phenyl-4-ethylsulphonyl-1,2,5-oxadiazole-2-oxide] | 50 nM | 
O=[N+]([O-])O[C@@H]1CO[C@H]2[C@@H]1OC[C@@H]2O [Isosorbide-5-mononitrate, reference compound] |  | > 100000 nM
